Results as given in PMC12583704 (Signal Transduction and Targeted Therapy, 2025).

Assay: Phase 1 study NCT03594422: adverse events graded by NCI CTCAE v4.03
Type: in vivo, human
Procedure: Part 1 was a dose-escalation study to determine the recommended phase 2 dose (RP2D) in solid tumors. […] The initial design was a 3 + 3 dose escalation from 20 mg, but the protocol was amended to randomly enroll and assign patients to starting doses of 30, 40, and 50 mg on the basis of safety data acquired in the CML trial.[20] […] An interactive web response system was used for randomization. Part 2 was a nonrandomized study focusing on patients with SDH-deficient GISTs. […] On the basis of preliminary data from adult patients, adolescent patients with advanced wild-type GISTs were also included in Part 2. The dosage for adolescents was adjusted according to their body weights.
AEs were evaluated at each follow-up visit: on Days 1, 8, 15, and 22 during Cycles 1 and 2; and on Days 1 and 15 in Cycle 3 and all subsequent cycles, up to 30 days after the final dose. All AEs were graded according to the National Cancer Institute Common Terminology Criteria for Adverse Events v4.03. Clinical laboratory investigations for routine blood examinations and serum chemistry parameters were performed during every cycle (on Day 1), during Cycles 1 and 2 (on Days 8, 15, and 22), and 30 days after the last dose of treatment. Urinalysis, coagulation, cardiac troponin I/T, lipase, amylase, and electrocardiographic evaluations were conducted at baseline; during Cycles 1 and 2 (on Days 1 and 15); during Cycles 3, 5, 7, and 9; every three cycles after Cycle 9 (on Day 1); and 14 days after the last dose of treatment. All patients underwent tumor imaging for response assessment via computed tomography or magnetic resonance imaging at screening and every two cycles (8 weeks) until progression or discontinuation. Target and nontarget lesions were assessed per the Response Evaluation Criteria in Solid Tumors version 1.1 (RECIST v1.1).

## Cc1ccc(C(=O)Nc2ccc(CN3CCN(C)CC3)c(C(F)(F)F)c2)cc1C#Cc1cnc2[nH]ncc2c1 [Olverembatinib, 3-[(1H-pyrazolo[3,4-b]pyridin-5-yl)ethynyl]-4-methyl-N-{4-[(4-methylpiperazin-1-yl)methyl]-3-(trifluoromethyl)phenyl]benzamide]
40 mg (n = 32), Grade 3-5
  TEAE: Constipation: 0 n (%)
  TEAE: Fatigue: 1 (3.1) n (%)
  TEAE: Hyperuricemia: 0 n (%)
  TEAE: Hypoalbuminemia: 0 n (%)
  TEAE: Leukocyte count increased: 0 n (%)
  TEAE: Melanocytic nevus: 0 n (%)
  TEAE: Neutrophil count increased: 0 n (%)
  TEAE: Pyrexia: 0 n (%)
  TEAEs: 12 (37.5) n (%)
  TRAE: ALT increased: 0 n (%)
  TRAE: AST increased: 0 n (%)
  TRAE: Anemia: 0 n (%)
  TRAE: Blood creatinine increased: 0 n (%)
  TRAE: Constipation: 0 n (%)
  TRAE: Fatigue: 1 (3.1) n (%)
  TRAE: Hypoalbuminemia: 0 n (%)
  TRAE: Leukocyte count increased: 0 n (%)
  TRAE: Melanocytic nevus: 0 n (%)
  TRAE: Neutrophil count increased: 0 n (%)
  TRAE: Platelet count increased: 0 n (%)
  TRAE: Pyrexia: 0 n (%)
50 mg (n = 16), Any grade
  TEAE: Abdominal pain: 3 (18.8) n (%)
  TEAE: Alanine aminotransferase increased: 6 (37.5) n (%)
  TEAE: Anemia: 8 (50.0) n (%)
  TEAE: Aspartate aminotransferase increased: 10 (62.5) n (%)
  TEAE: C-reactive protein increased: 4 (25.0) n (%)
  TEAE: Constipation: 7 (43.8) n (%)
  TEAE: Fatigue: 5 (31.3) n (%)
  TEAE: Hyperuricemia: 5 (31.3) n (%)
  TEAE: Hypoalbuminemia: 5 (31.3) n (%)
  TEAE: Leukocyte count increased: 8 (50.0) n (%)
  TEAE: Melanocytic nevus: 4 (25.0) n (%)
  TEAE: Neutrophil count increased: 6 (37.5) n (%)
  TEAE: Pyrexia: 6 (37.5) n (%)
  TEAEs: 16 (100.0) n (%)
  TRAE: ALT increased: 5 (31.3) n (%)
  TRAE: AST increased: 6 (37.5) n (%)
  TRAE: Anemia: 4 (25.0) n (%)
  TRAE: Blood creatinine increased: 1 (6.3) n (%)
  TRAE: Constipation: 5 (31.3) n (%)
  TRAE: Fatigue: 5 (31.3) n (%)
  TRAE: Hypoalbuminemia: 3 (18.8) n (%)
  TRAE: Leukocyte count increased: 8 (50.0) n (%)
  TRAE: Melanocytic nevus: 4 (25.0) n (%)
  TRAE: Neutrophil count increased: 6 (37.5) n (%)
  TRAE: Platelet count increased: 2 (12.5) n (%)
  TRAE: Pyrexia: 4 (25.0) n (%)
50 mg (n = 16), Grade 3-5
  TEAE: Abdominal pain: 0 n (%)
  TEAE: Alanine aminotransferase increased: 2 (12.5) n (%)
  TEAE: Anemia: 1 (6.3) n (%)
  TEAE: Aspartate aminotransferase increased: 2 (12.5) n (%)
  TEAE: C-reactive protein increased: 0 n (%)
  TEAE: Constipation: 0 n (%)
  TEAE: Fatigue: 0 n (%)
  TEAE: Hyperuricemia: 0 n (%)
  TEAE: Hypoalbuminemia: 0 n (%)
  TEAE: Leukocyte count increased: 0 n (%)
  TEAE: Melanocytic nevus: 0 n (%)
  TEAE: Neutrophil count increased: 0 n (%)
  TEAE: Pyrexia: 0 n (%)
  TEAEs: 9 (56.3) n (%)
  TRAE: ALT increased: 1 (6.3) n (%)
  TRAE: AST increased: 1 (6.3) n (%)
  TRAE: Anemia: 0 n (%)
  TRAE: Blood creatinine increased: 0 n (%)
  TRAE: Constipation: 0 n (%)
  TRAE: Fatigue: 0 n (%)
